According to patent US6387605B1, “Co-developers for black-and-white photothermographic elements” (Eastman Kodak Company, priority 1999, dated 2002):

Experiment: Solubility of co-developers in coating solvents (Example 5)
Type: physicochemical
Procedure: Solubility of Co-developers: In order for the co-developer to perform effectively, some quantity of the co-developer must be soluble in the coating solvent for the emulsion layer or topcoat layer. 2-Butanone MEK) and methanol are typical solvents for these layers. Solubility will vary depending on the structure of the co-developer, the composition of the layer containing the co-developer, and the solvents employed.
The photothermographic elements of this invention typically require from 10 mg to 100 mg of co-developer in 40 g of photothermographic emulsion in 25 g 2-butanone in order to achieve high contrast. The photothermographic emulsions are held at 50° F. (10° C.). As this is below room temperature, the solubility is below that of the co-developer at room temperature.
The solubility of co-developer CI-03 in 25 g of 2-butanone (MEK) and in 25 g of methanol was determined.

O=C1NC(=O)C(=CO)C(=O)N1 [CI-03, 5-(Hydroxymethylone)-2,4,5(1H3H,5H)-pyrimdine-trione]
Solubility in MEK (2.5 mg in 25 g 2-butanone, room temperature): Soluble at room temperature. | Solubility in MEK (5.0 mg in 25 g 2-butanone, 90° F. (32° C.)): Soluble at 90° F. (32° C.). | Solubility in MEK (5.0 mg in 25 g 2-butanone, room temperature): Insoluble at room temperature. | Solubility in MeOH (5 mg in 25 g methanol, room temperature): Soluble at room temperature. | Solubility in MEK (12.5 mg in 25 g 2-butanone, 90° F. (32° C.)): Insoluble at 90° F. (32° C.). | Solubility in MeOH (12.5 mg in 25 g methanol, 90° F. (32° C.)): Soluble at 90° F. (32° C.). | Solubility in MeOH (12.5 mg in 25 g methanol, room temperature): Insoluble at room temperature. | Solubility in MEK (25 mg in 25 g 2-butanone, 90° F. (32° C.)): Insoluble at 90° F. (32° C.). | Solubility in MeOH (25 mg in 25 g methanol, 90° F. (32° C.)): Soluble at 90° F. (32° C.). | Solubility in MeOH (25 mg in 25 g methanol, room temperature): Insoluble at room temperature. | Solubility in organic solvents (Example 1, sample 1-28): Compound CI-03 was insoluble in organic solvents.
